The source of these data is paper PMC12700550, “DLL4^+ neutrophils promote Notch1-mediated endothelial PANoptosis to exacerbate acute lung injury in sepsis” (The Journal of Clinical Investigation, 2025).

“And” between values parts separate entries of the source, which are not always exact repeats. Identical values can stand only once.

The subject of data set [1] is ZBP1. Nature of the data set: ZBP1 protein in PVECs cocultured with neutrophils, Western blot. In kind it is cell-based, mouse. The following applies: for ZBP1 protein level (Figure 4F): 10 μM peptide, 16 h, individual replicates. On the procedure:
Wild-type PVECs (5 × 10^5) were cocultured with sorted DLL4^+ neutrophils (5 × 10^5) or DLL4^– neutrophils (5 × 10^5) and then treated with different dosages of peptides or 10 μM DAPT (Thermo Fisher Scientific), 10 μM NDI (GenScript), or 10 μM NDI scramble (GenScript). Notch1-knockdown PVECs (5 × 10^5) were cocultured with sorted DLL4^+ neutrophils (5 × 10^5). After 16 hours, neutrophils were washed away by PBS, and PVECs were collected for further experiments. Cell viability was evaluated by propidium iodide staining using the FITC Annexin V Apoptosis Detection Kit I (catalog 556547, BD Pharmingen). Cell death was quantified as the percentage of propidium iodide–positive cells by flow cytometry.
PVECs and lung tissue were collected in previous steps. Whole-cell proteins were extracted, and the protein concentration was measured using an ABC protein assay kit (catalog 5000002, Bio-Rad). Proteins were separated using NuPAGE 4%–12% Bis-Tris gels (Invitrogen), transferred to PVDF membranes, and immunoblotted with the antibodies indicated in the figure legends according to the manufacturer’s recommendations. The ZBP1 antibody (catalog PA5-20455; 1:1,000) used in this study was obtained from Thermo Fisher Scientific, and the c-GSDMD (catalog 10137S; 1:250), GSDMD (catalog 39754S; 1:1000), c-caspase-3 (catalog 9661L; 1:250), caspase-3 (catalog 9662S; 1:1,000), p-MLKL (catalog 37333S; 1:250), MLKL (catalog 37705S; 1:1,000), N1ICD (c-Notch1) (catalog 4147S; 1:250), and Notch1 (catalog 3608S; 1:1,000) antibodies were obtained from Cell Signaling Technology. GAPDH (catalog 60004-1-Ig; 1:10,000) and β-actin (catalog A5441, Sigma-Aldrich; 1:5,000) were obtained from ProteinTech. After the blots were incubated with primary antibodies, the membranes were washed 3 times, and the blots were subsequently incubated with the corresponding fluorescent secondary antibody (LI-COR). Bands were detected using an Odyssey FC Dual-Mode Imaging system 2800 (LI-COR).
On the technique in general: Immunoblotting shows a protein as a band on a membrane.

For data set [2], the system named is c-GSDMD. The experiment in a line: c/t GSDMD in lungs of CLP mice, Western blot. In kind it is in vivo, mouse. The following applies: 10 mg/kg NDI, 20 h; for lung c/t GSDMD (Figure 5D): individual mice, 10 mg/kg. How it is done:
(§1) Sepsis was induced in mice by cecal ligation and puncture (CLP) as described previously ([45], [46]). Mice were anesthetized with isoflurane to a surgical plane and placed in a supine position. CLP was performed through a midline laparotomy. The abdomen was shaved and disinfected. Through a 2 cm midline incision, the cecum was exposed and then ligated with a 4-0 silk suture 1 cm proximal from the distal cecal extremity. For 20-hour CLP experiments, the cecum was punctured twice with a 22-gauge needle. A small amount of cecal content was extruded through both holes, and the ligated cecum was returned to the peritoneal cavity. The wound was closed in layers. For 10-day sepsis survival studies, the cecum was punctured once with a 22-gauge needle. A small amount of cecal content was extruded. Mice were allocated to the vehicle and adoptive transfer of DLL4^+ neutrophils or DLL4^– neutrophils groups. Adoptive transfer mice received a retro-orbital injection of 1 × 10^6 cells per mouse DLL4^+ neutrophils or DLL4^– neutrophils in […] phosphate-buffered saline (PBS) immediately after abdominal closure in both the 20-hour experiments and the survival study. Vehicle groups received an equivalent volume of PBS, while treatment groups received NDI 10 mg/kg in […] PBS via retro-orbital injection after CLP. This dose was chosen primarily on the basis of our laboratory’s prior experience, we have consistently used this dose in mouse CLP models with reproducible efficacy and without observable toxicity ([39], [44]). Sham-operated animals underwent a laparotomy without CLP. After closure, the mice received a subcutaneous injection of 0.5 mL of normal saline to overcome surgery-induced dehydration. […]
PVECs and lung tissue were collected in previous steps. Whole-cell proteins were extracted, and the protein concentration was measured using an ABC protein assay kit (catalog 5000002, Bio-Rad). […] Bands were detected using an Odyssey FC Dual-Mode Imaging system 2800 (LI-COR).

Data set [3] has as its system C57BL/6 mice, CLP sepsis. The conditions noted are these: mouse, in vivo, 10 mg/kg. On the procedure:
as §1, with “CLP.” for “CLP. This dose was chosen primarily on the basis of our laboratory’s prior experience, we have consistently used this dose in mouse CLP models with reproducible efficacy and without observable toxicity ([39], [44]). Sham-operated animals underwent a laparotomy without CLP. After closure, the mice received a subcutaneous injection of 0.5 mL of normal saline to overcome surgery-induced dehydration.”

For the sequence ECAGSPCHNGGTCEDGI [NDI], the “effect on ZBP1 protein” value in data set [1] (10 μM NDI, DLL4^+ neutrophil coculture) was “significantly attenuated by NDI treatment”. Further, in data set [1] (10 μM NDI, DLL4^– neutrophil coculture), the “effect on ZBP1, c-GSDMD, c-caspase-3, and p-MLKL” value is “less effect on the DLL4^– neutrophil coculture group”. In addition, the “ZBP1 protein level (Figure 4F)” value in data set [1] (DLL4^+ neutrophil coculture) was 3.384 and 1.384 and 0.9406 and 0.8744 and 0.4031 and 0.6648 and 0.9901 and 0.7708 and 1.063 and 1.037 and 1.784 and 1.376 and 1.24 and 1.14; in data set [1] (DLL4^– neutrophil coculture), 1.4609 and 1.716 and 1.338 and 0.9958 and 0.6394. Also, the “lung c/t GSDMD (Figure 5D)” value was 2.146 and 1.894 and 1.978 and 1.095 and 1.287 and 1.8342 in data set [2] (DLL4^+ neutrophils + CLP); 1.599 and 0.7489 and 0.6289 and 1.139 and 1.05 in data set [2] (DLL4^– neutrophils + CLP). Besides, in data set [2] (DLL4^+ neutrophils/sepsis), the “effect on lung c-GSDMD” value is “attenuated the expression/activation”. Further, the “adverse effects” value in data set [3] is recorded as “lack of observed adverse effects in treated animals”.
